Holding throughout (assay): mass response relative to vehicle control (EMD distance of treated vs reference mass distribution minus control baseline) (% of mean reference cell mass); higher = larger drug-induced change in single-cell mass distribution (stronger response)
One experiment relates to H929. As for the experimental part: (§1)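 Cancer cell lines were treated in vitro with drugs at the listed doses (about 24 h; 0.25% DMSO vehicle). Single-cell buoyant mass was measured on suspended microchannel resonator instruments with CNN image curation, 2500 cells per condition. Mass response is the Earth Mover's Distance to vehicle-treated reference cells as % of mean reference mass.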

The subject of another experiment is A549. As for the experimental part: as §1
The next experiment deals with H2228. The protocol: as §1
In another experiment the test system is MV-4-11. The protocol:
as §1

The test system of a further experiment is H1666. As for the experimental part:
as §1

A further experiment has as its system PA-TU-8902. As for the experimental part: as §1
For another experiment, the system named is KMS-12-PE. As for the experimental part: as §1

± gives the uncertainty stated by the source.

Take `CCN1CCN(Cc2ccc(Nc3ncc(F)c(-c4cc(F)c5nc(C)n(C(C)C)c5c4)n3)nc2)CC1` [Abemaciclib]: the mass response with H929 (0.05 µM) was determined as 13.7 ± 3.8; in the experiment on H929 (0.5 µM), 10.7 ± 3.7; in the experiment with H929 (5 µM), 22.1 ± 2.2; with H929 (20 µM), 29.6 ± 1.8.

In the case of `CCc1cc2c(cc1N1CCC(N3CCOCC3)CC1)C(C)(C)c1[nH]c3cc(C#N)ccc3c1C2=O` [Alectinib], the mass response was found to be 3.04 in the experiment on A549 (0.1 µM), 0.678 in the experiment on A549 (0.5 µM), 3.27 in the experiment on A549 (1 µM) and 24.8 with A549 (10 µM).

As to `CC(C)C[C@H](NC(=O)[C@H](Cc1ccccc1)NC(=O)c1cnccn1)B(O)O` [Bortezomib], the mass response with H929 (0.001 µM) is -0.979 ± 1.1; in the experiment with H929 (0.005 µM), 24.1 ± 2.9; in the experiment on H929 (0.025 µM), 34.2 ± 4.2; with H929 (0.05 µM) it was 33.7 ± 4.1.

On to `COc1cc2nccc(Oc3ccc(NC(=O)C4(C(=O)Nc5ccc(F)cc5)CC4)cc3)c2cc1OC` [Cabozantinib], for which the mass response is 0.815 ± 0.96 in the experiment on H2228 (0.01 µM), 1.67 ± 0.69 in the experiment with H2228 (0.1 µM), -1.71 ± 0.46 in the experiment with H2228 (1 µM) and 15.5 ± 1 in the experiment with H2228 (10 µM).

On to `Cc1cc(Nc2ncc(Cl)c(Nc3ccccc3S(=O)(=O)C(C)C)n2)c(OC(C)C)cc1C1CCNCC1` [Ceritinib], for which the mass response in the experiment with H2228 (0.01 µM) amounted to 2.19 ± 0.97; in the experiment on H2228 (0.1 µM), 25.7 ± 7.5; in the experiment with H2228 (1 µM) it was 27.4 ± 6.2; with H2228 (10 µM) it was 61 ± 1.

Regarding `C[C@@H](Oc1cc(-c2cnn(C3CCNCC3)c2)cnc1N)c1c(Cl)ccc(F)c1Cl` [Crizotinib], the mass response was -1.1 ± 0.55 in the experiment on A549 (0.01 µM), -1.44 ± 0.16 in the experiment with A549 (0.1 µM), 6.6 ± 1.6 in the experiment on A549 (1 µM) and 12.1 ± 0.61 in the experiment with A549 (10 µM).

Consider `Nc1ccn([C@@H]2O[C@H](CO)[C@@H](O)[C@@H]2O)c(=O)n1` [Cytarabine], for which the mass response in the experiment on MV-4-11 (0.001 µM) is -1.03 ± 0.38; in the experiment on MV-4-11 (0.01 µM), 2.01 ± 0.69; in the experiment on MV-4-11 (0.1 µM), 15 ± 1.3; in the experiment on MV-4-11 (1 µM), 22.9 ± 0.31.

For `COC(=O)N[C@@H](C)CNc1nccc(-c2cn(C(C)C)nc2-c2cc(Cl)cc(NS(C)(=O)=O)c2F)n1` [Encorafenib], the mass response in the experiment on H1666 (0.01 µM) is 1.22 ± 0.73; with H1666 (0.1 µM) it was -0.00481 ± 0.44; with H1666 (1 µM) it was 11.9 ± 4.1; with H1666 (10 µM) it was 20.6 ± 3.6.

Consider `Nc1ccn([C@@H]2O[C@H](CO)[C@@H](O)C2(F)F)c(=O)n1` [Gemcitabine], for which the mass response with PA-TU-8902 (0.002 µM) was 11.2 ± 4.4; in the experiment with PA-TU-8902 (0.02 µM) it was 7.94 ± 0.91; with PA-TU-8902 (0.2 µM), 5.91 ± 0.96; in the experiment on PA-TU-8902 (2 µM), 15.9 ± 3.

Turning to `O=C(O)C(=O)O.[NH-][C@@H]1CCCC[C@H]1[NH-].[Pt+2]` [Oxaliplatin], the mass response was determined as 5.04 ± 2.9 in the experiment on PA-TU-8902 (0.5 µM), 1.26 ± 5 with PA-TU-8902 (5 µM), 27.3 ± 9.2 in the experiment with PA-TU-8902 (25 µM) and 45.7 ± 3.4 in the experiment with PA-TU-8902 (50 µM).

Take `CN(C)C(=O)c1cc2cnc(Nc3ccc(N4CCNCC4)cn3)nc2n1C1CCCC1` [Ribociclib]: the mass response with H929 (0.1 µM) worked out at 2.31 ± 0.72; in the experiment with H929 (1 µM), 0.00401 ± 0.89; in the experiment with H929 (10 µM) it was 1.33 ± 1.2; in the experiment on H929 (50 µM) it was 14.2 ± 3.9.

Turning to `CC1(C)CCC(CN2CCN(c3ccc(C(=O)NS(=O)(=O)c4ccc(NCC5CCOCC5)c([N+](=O)[O-])c4)c(Oc4cnc5[nH]ccc5c4)c3)CC2)=C(c2ccc(Cl)cc2)C1` [Venetoclax], the mass response in the experiment with KMS-12-PE (0.005 µM) was 0.784 ± 4.6; in the experiment on KMS-12-PE (0.05 µM), 22.2 ± 0.87; in the experiment on KMS-12-PE (0.5 µM), 35.5 ± 0.37; in the experiment on KMS-12-PE (5 µM), 39.9 ± 4.1.

The values above are taken from the supplement of paper PMC9701192.
